Laboratory results: ChEMBL document CHEMBL1687862, “Prenylated flavanones with anti-tyrosinase activity from Dalea boliviana” (J Nat Prod, 2011)

Tests used:
[1] = target: T1, Tyrosinase (Agaricus bisporus) (UniProt O42713); experiment: Inhibition of mushroom tyrosinase at 100 uM preincubated for 10 mins before addition of 1.7 mM L-tyrosine measured after 20 mins by spectrophotometric method
T1 sequence (whole entry): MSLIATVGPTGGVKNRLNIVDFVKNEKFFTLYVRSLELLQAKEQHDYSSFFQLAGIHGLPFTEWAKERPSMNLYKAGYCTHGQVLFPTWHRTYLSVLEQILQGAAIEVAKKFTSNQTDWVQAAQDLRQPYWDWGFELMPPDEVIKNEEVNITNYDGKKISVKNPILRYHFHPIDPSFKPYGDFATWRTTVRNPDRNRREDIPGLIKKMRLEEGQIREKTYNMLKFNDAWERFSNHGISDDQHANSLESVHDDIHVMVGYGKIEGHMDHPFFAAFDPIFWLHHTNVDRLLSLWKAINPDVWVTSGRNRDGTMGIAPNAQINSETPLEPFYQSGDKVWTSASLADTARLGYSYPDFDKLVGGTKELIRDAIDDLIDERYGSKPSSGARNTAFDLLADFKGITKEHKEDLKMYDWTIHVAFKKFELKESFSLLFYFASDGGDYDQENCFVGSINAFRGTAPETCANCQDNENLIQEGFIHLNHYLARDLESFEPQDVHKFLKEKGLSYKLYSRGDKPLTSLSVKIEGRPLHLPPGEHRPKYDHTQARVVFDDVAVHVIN

[2] = target: T1, Tyrosinase (Agaricus bisporus); experiment: (§1) Inhibition of mushroom tyrosinase preincubated for 10 mins before addition of 1.7 mM L-tyrosine measured after 20 mins by spectrophotometric method
[3] = target: T2, Tyrosinase (Agaricus bisporus, UniProt O42713); experiment: as §1
T2 sequence (O42713 whole entry): T1 sequence (whole entry)

Structure (SMILES)	inhibition [1] [%]	IC5 [2] [µM]	IC50 [3] [µM]
CC(C)=CCc1cccc([C@@H]2CC(=O)c3c(O)cc4c(c3O2)C=CC(C)(C)O4)c1O	6.4		
COc1ccc([C@@H]2CC(=O)c3c(O)cc(O)cc3O2)cc1O	0		
CC1(C)C=Cc2c(cc(O)c3c2O[C@H](c2ccccc2)CC3=O)O1	16.2		
O=C1C[C@@H](c2ccc(O)cc2)Oc2cc(O)cc(O)c21	2.8		
C=CC(C)(C)c1ccc(O)c([C@@H]2CC(=O)c3c(O)cc(O)c(CC=C(C)C)c3O2)c1	82.1	27.5	
CC(C)=CCc1cccc([C@@H]2CC(=O)c3c(O)cc(O)c(CC=C(C)C)c3O2)c1O	87.8		68.5
